Results reported in patent US8420653B2, “Pyrimidine compounds and their uses” (Orchid Chemicals & Pharmaceuticals Limited, priority 2008, dated 2013).
Read-outs that look alike come from different tables or passages of the source.

Experiments:
TNF-α = assay: In vitro measurement of TNF-α in human PBMC; type: cell-based; details: for inhibition at 1 µM: Conc. (1 μM); for inhibition at 10 µM: Conc. (10 μM)
Protocol: In Vitro Measurement of TNF-α in Human Peripheral Blood Mononuclear Cells
This assay determines the effect of test compounds on the production of TNF a in human Peripheral Blood Mononuclear Cells (PBMC). Compounds were tested for their ability to inhibit the activity of TNF α in human PBMC. PBMC were isolated from blood (of healthy volunteers) using BD Vacutainer CPT™ (Cell preparation tube, BD Bio Science) and suspended in RPMI medium (Physiol. Res. 52, 593-598, 2003). The test compounds were pre-incubated with PBMC (0.5 million/incubation well) for 15 minutes at 37° C. and then stimulated with Lipopolysaccharide (Escherichia coli: B4; 1 μg/ml) for 18 hours at 37° C. in 5% CO2. The levels of TNF-α in the cell culture medium were estimated using enzyme-linked immunosorbent assay performed in a 96 well format as per the procedure of the manufacturer (Cayman Chemical, Ann Arbor, USA).

NCI-H460 = assay: Anti-cancer screen (MTT), NCI-H460; type: cell-based; details: Homo sapiens
Protocol: (§1) Experimental drugs are screened for anti-cancer activity in three cell lines for their GI50, TGI and LC50 values (using 5 concentrations for each compound). The cell lines are maintained in DMEM containing 10% fetal bovine serum. 96 well microtiter plates are inoculated with cells in […] for 24 hours at 37° C., 5% CO2, 95% air and 100% relative humidity. 5000 HCT116 cells/well, 5000 NCIH460 cells/well, 10000 U251 cells/well and 5000 MDAMB231 cells/well are plated. A separate plate with these cell lines is also inoculated to determine cell viability before the addition of the compounds (T0).
(§2) Following 24-hour incubation, experimental drugs are added to the 96 well plates. Each plate contains one of the above cell lines and the following in triplicate: 5 different concentrations (0.01, 0.1, 1, 10 and 100 μM) of 4 different compounds, appropriate dilutions of a cytotoxic standard and control (untreated) wells. Compounds are dissolved in dimethylsulfoxide (DMSO) to make 20 mM stock solutions, on the day of drug addition and frozen at −20° C. Serial dilutions of these 20 mM stock solutions are made in complete growth medium such that 100 μL of these drug solutions in medium, of final concentrations equaling 0.01, 0.1, 1, 10 and 100 μM can be added to the cells in triplicate. Standard drugs whose anti-cancer activity has been well documented and which are regularly used are doxorubicin and SAHA.
(§3) Cells are incubated with compounds for 48 hours followed by the addition of 10 μL 3-(4,5-Dimethyl-2-thiazolyl)-2,5-diphenyl-2H-tetrazolium (MTT) solution per well and a subsequent incubation at 37° C., 5% CO2, 95% air and 100% relative humidity, protected from light. After 4 hours, well contents are aspirated carefully followed by addition of 150 μL DMSO per well. Plates are agitated to ensure solution of the formazan crystals in DMSO and absorbance read at 570 nm.
(§4) Percent growth is calculated for each compound's concentration relative to the control and zero measurement wells (T0; viability right before compound addition). If a test well's O.D. value is greater than the T0 measurement for that cell line % Growth=(test−zero)/(control−zero)×100
(§5) If a test well's O.D. value is lower than the T0 measurement for that cell line, then: % Growth=(test−zero)/zero×100
(§6) Plotting % growth versus experimental drug concentration, GI50 is the concentration required to decrease % growth by 50%; TGI is the concentration required to decrease % growth by 100% and LC50 is the concentration required to decrease % growth by 150%.

PDE4 = tested on: T1, PDE4; assay: PDE4 activity (source human U937 cells); type: biochemical; details: for PDE4 inhibition at 10 μM (%): source human U937 cells; for PDE4 at 10 μm: Table XVb summary
T1 construct: other: 10 μM, source human U937 cells; PDE4 at 10 μm
Protocol: PDE4 inhibition was measured by following a literature assay procedure (Cortizo J et al., Br J. Pharmacol., 1993, 108: 562-568. The assay method involves the following conditions.
Substrate: 1.01 μM [^3H] camp+camp
Pre-Incubation Time/Temperature: 15 minutes at 25° C.
Incubation Time/Temperature. 20 minutes at 25° C.
Incubation buffer: 50 mM Tris-HCl, pH 7.5, 5 mM MgCl2
Quantitation method: Quantitation of [^3H] Adenosine
Significance criteria: ≧50% of max stimulation or inhibition

TNF- α = assay: TNF-α IC50 (Table XVa, assay not given); type: cell-based; details: Table XVa summary
HCT-116 = assay: Anti-cancer screen (MTT), HCT-116; type: cell-based; details: Homo sapiens
Protocol: as §1, §2, §3, §4, §5, §6

IL-1β = IL-1β inhibition (Table XVa); type: cell-based; details: Table XVa summary
[1] = 48 hours, MTT, read-out: GI50 (μM) NCI-H460
[2] = Table XVb summary, for NCI, read-out: Cancer cell lines DU, HCT, NCI (Mean GI50, μm), NCI
[3] = 48 hours, MTT, read-out: GI50 (μM) HCT-116
[4] = Table XVb summary, for HCT, read-out: Cancer cell lines DU, HCT, NCI (Mean GI50, μm), HCT

GI50 (NCI-H460; [1]) [µM] | IC50 (TNF- α) [nM] | GI50 (HCT-116; [3]) [µM] | SMILES | inhibition at 1 µM (TNF-α) [%] | inhibition at 10 µM (TNF-α) [%] | GI50 (NCI-H460; [2]) [µM] | PDE4 inhibition at 10 μM (%) (PDE4) | PDE4 at 10 μm (PDE4) | GI50 (HCT-116; [4]) [µM] | IL-1β at 10 μm (IL-1β)
10.5 | 64 | > 100 | CCOC(=O)C1CCN(c2nc(C(F)(F)F)nc(-c3ccc(F)cc3)c2-c2cccc(S(N)(=O)=O)c2)CC1 [Example 59, Ethyl-1-[5-(3-aminosulfonylphenyl)-6-(4-fluorophenyl)-2-(trifluoromethyl)pyrimidin-4-yl]piperidine-4-carboxylate] | 87 | 92 | 10.5 | 93 | 87 | > 100 | 29
> 100 | 78 | > 100 | NS(=O)(=O)c1cccc(-c2c(-c3ccc(F)cc3)nc(C(F)(F)F)nc2-n2ccnc2)c1 [Example 80, 3-[4-(4-Fluorophenyl)-6-(1H-imidazol-1-yl)-2-(trifluoromethyl)pyrimidin-5-yl]benzenesulfonamide] | 50 | 78 | > 100 | 87 | 93 | > 100 | 36
